Experimental data taken from patent publication US20230103549A1, “OVERLAPPING THERAPEUTIC STRATEGIES FOR CYSTINOSIS TREATMENT AND COSMETIC SKIN DARKENING” (Whitehead Institute for Biomedical Research, priority 2019, published 2023).

Key:
[1] = target: T1, plasma membrane-localized MFSD12 (Homo sapiens, UniProt Q6NUT3, DEL167-169/L256A/L257A/Y182H); experiment: Plasma membrane cellular cysteine uptake assay (MFSD12^PM); format: cell-based; conditions: HEK-293T cells expressing MFSD12^PM; 500 μM cold cysteine for competition
T1 construct: expressed in transfected cells; host or cells: HEK-293T cells transiently transfected with the pRK5-HA-MFSD12 LL253-254AA plasmid (PEI)
Protocol: 3 million HEK-293T cells were plated in 10 cm dishes. Cells were transfected with 3 μg of plasmid with PEI (3 μg per 1 μg plasmid) and scraped 48 hours post-transfection into ice cold KPBS. After washing twice, cells were resuspended in LysoBuffer supplemented with 2.5 μM Erastin (MilliporeSigma), 4 mM leucine, and 3 mM serine. Assays were started with the addition of cold cysteine (10 μM for transport conditions and 500 μM for competition) and 50 μCi/mL (<100 pM) [^35S]-cysteine. Samples were incubated at 30° C. and aliquots were taken at indicated time points. Aliquoted cells were harvested by centrifugation at 1,000×g for 30 seconds at 4° C. and washed twice in ice-cold PBS. Cell pellets were resuspended in water before mixing into scintillation fluid and measuring scintillation counts (TriCarb T9000TR, Perkin-Elmer).

MFSD12 = target: T2, MFSD12 (Homo sapiens, UniProt Q6NUT3); experiment: Cysteine uptake assay into isolated lysosomes; format: biochemical; conditions: 500 μM unlabeled cysteine; lysosomes from HEK-293T cells; 15-minute transport assay
T2 construct: isolate large quantities of lysosomes from wild-type and MFSD12 knock-out HEK-293T cells; endogenous in cells; host or cells: suspension-adapted HEK-293T cells; lysosomes purified by differential and OptiPrep gradient centrifugation
Protocol: Lysosomal purification protocols were adapted from previous protocols (Graham, 2001). 500 million suspension-adapted HEK-293T cells were spun down, washed in ice-cold PBS, and resuspended in 15 mL homogenization buffer (250 mM sucrose; 20 mM HEPES, pH 7.4; 1 mM EDTA) supplemented with protease inhibitor tablets (Roche). Cells were dounced 10 times in a lose fitting glass dounce and the resulting lysate was centrifuged at 1,500×g for 10 minutes at 4° C. After transferring the supernatant, 15 mL homogenization buffer was used to resuspend the pellet, and douncing and centrifugation were repeated. Supernatants from three successive rounds of homogenization and centrifugation were pooled and centrifuged a final time before transferring ‘post-nuclear supernatant’ to the subsequent step. ‘Post-nuclear supernatant’ was centrifuged at 20,000×g for 10 minutes at 4° C. to pellet organelles. To further wash organelles, the pellet was resuspended in 45 mL homogenization buffer and spun again at 20,000×g for 10 minutes at 4° C. The resulting pellet or ‘light mitochondrial fraction’ was resuspended in 9% OptiPrep (Thermo Fisher) prepared in Dilution Buffer (250 mM sucrose; 40 mM HEPES, pH 7.4; 2 mM EDTA) and overlaid on top of a discontinuous gradient of 18, 16, 14, 12, and 10% OptiPrep prepared in Dilution Buffer. […]

T2 sequence (Q6NUT3 whole entry): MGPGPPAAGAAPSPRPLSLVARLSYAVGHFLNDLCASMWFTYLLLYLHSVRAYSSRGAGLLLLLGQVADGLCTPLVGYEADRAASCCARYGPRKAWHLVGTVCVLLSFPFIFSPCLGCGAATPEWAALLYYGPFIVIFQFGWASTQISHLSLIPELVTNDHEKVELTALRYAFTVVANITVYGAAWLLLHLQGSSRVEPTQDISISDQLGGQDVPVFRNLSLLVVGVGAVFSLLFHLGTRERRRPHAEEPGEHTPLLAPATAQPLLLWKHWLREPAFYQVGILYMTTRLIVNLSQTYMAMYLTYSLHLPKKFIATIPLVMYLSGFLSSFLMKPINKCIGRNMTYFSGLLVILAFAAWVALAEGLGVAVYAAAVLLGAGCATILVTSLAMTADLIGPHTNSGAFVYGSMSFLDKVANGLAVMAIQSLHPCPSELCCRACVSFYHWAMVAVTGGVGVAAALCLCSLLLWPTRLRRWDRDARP
T1 sequence (Q6NUT3 with tags, fused parts or gaps DEL167-169/Y182H/L256A/L257A): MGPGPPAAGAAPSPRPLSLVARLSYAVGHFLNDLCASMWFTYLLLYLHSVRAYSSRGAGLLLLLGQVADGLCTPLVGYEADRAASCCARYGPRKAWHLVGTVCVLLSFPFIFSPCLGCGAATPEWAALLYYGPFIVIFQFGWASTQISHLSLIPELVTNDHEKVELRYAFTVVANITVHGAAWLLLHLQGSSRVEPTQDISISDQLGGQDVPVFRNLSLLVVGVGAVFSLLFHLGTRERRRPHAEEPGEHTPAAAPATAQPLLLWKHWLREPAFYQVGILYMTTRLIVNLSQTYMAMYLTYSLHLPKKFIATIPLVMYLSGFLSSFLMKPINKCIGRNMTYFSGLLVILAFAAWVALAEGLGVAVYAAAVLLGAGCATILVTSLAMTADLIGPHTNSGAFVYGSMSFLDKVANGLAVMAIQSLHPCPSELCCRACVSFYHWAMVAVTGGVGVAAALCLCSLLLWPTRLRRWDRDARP

competition of MFSD12-induced [35S]-cysteine transport [1]: completely competed
SMILES: N[C@@H](CS)C(=O)O [cysteine]
competition of [35S]-cysteine signal in lysosomes (MFSD12): reduce the [^35S] signal in lysosomes having MFSD12 to the same level as those in lysosomes lacking it
